What is called IC50 is the concentration that gives 50% inhibition. A higher IC50 goes with weaker potency.

This experiment deals with T1, FGFR-1 (Homo sapiens, UniProt P11362).
T1 construct: GST; made in house
In words: FGFR-1 TR-FRET biochemical assay. The method, then:
FGFR-1TR-FRET Biochemical Assay
The FGFR-1 Assay was performed on half well 96-well opaque plates (Costar 3915) in a LANCE format. LANCE is a homogenous time resolved fluormetry based application available through Perkin Elmer. For this assay, 50 uL reactions were set up using: 0.6 uM ATP (Sigma), 25 nM poly GT-biotin (CIS BIO International), 2 nM Eu-labelled phospho-Tyr Ab (PY20 PerkinElmer), 10 nM Streptavidin-APC (Perkin Elmer), 5 nM FGFR1-GST (generated by DRT, Bayer Healthcare), 1% DMSO, 50 mM HEPES pH 7.5, 10 mM MgCl2, 0.1 mM EDTA, 0.015% Brij, 0.1 mg/ml BSA, 0.1% B-mercaptoethanol. All reactions were initiated with the addition of enzyme and were left to incubate for one hour at room temperature. Time-resolved fluorescence was then read on a Perkin Elmer VictorV Multilabel counter. The reading protocol uses an excitation wavelength at 340 nm and emission reads at both 615 and 665 nm. Signal was calculated as a ratio: (Flourescence at 665 nm/Flourescence at 615 nM)*10000 for each well. The background control used for this assay is the signal produced with all assay components excluding ATP. For IC50 generation, compounds were added prior to the enzyme initiation. A 50-fold stock plate was made with compounds serially diluted 1:5 in a 50% DMSO/50% dH2O solution. A 1 μL addition of the stock to the assay wells gave final compound concentrations ranging from 10 μM-0.128 nM in 1% DMSO. The data were expressed as percent inhibition: % inhibition=100−((Signal with inhibitor−background)/(Signal without inhibitor−background))*100.
(In general: TR-FRET usually uses a lanthanide donor and a delayed reading to cut background.)

Setting [1] is: 0.6 uM ATP, 5 nM FGFR1-GST, bounds given in nM.
Where [2] appears, read: upper bound of the bin 'greater than 100 nM but less than 1 μM' (lower bound in E1).

The structures appear in SMILES notation.

T1 sequence (P11362 22-822): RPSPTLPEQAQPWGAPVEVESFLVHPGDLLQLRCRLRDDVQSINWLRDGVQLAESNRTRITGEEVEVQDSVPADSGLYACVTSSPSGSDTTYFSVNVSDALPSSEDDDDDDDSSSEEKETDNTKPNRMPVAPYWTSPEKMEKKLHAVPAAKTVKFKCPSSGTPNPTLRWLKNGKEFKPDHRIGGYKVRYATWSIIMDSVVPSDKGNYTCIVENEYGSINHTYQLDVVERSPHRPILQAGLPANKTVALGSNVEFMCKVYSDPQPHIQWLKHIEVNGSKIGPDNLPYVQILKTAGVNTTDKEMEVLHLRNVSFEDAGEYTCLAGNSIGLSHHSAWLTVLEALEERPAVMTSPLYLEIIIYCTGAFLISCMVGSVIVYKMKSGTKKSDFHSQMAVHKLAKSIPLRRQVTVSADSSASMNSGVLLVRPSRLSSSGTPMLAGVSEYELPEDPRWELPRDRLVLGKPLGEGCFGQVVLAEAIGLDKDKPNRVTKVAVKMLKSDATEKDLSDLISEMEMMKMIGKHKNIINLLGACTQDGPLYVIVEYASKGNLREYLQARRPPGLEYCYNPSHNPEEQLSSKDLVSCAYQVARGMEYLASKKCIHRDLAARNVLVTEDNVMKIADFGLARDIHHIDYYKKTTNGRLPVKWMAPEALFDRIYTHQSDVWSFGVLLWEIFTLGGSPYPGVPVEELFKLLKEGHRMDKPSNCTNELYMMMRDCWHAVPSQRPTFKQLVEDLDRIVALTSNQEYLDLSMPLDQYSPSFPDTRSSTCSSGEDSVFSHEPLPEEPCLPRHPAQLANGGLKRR

Regarding `Nc1ncnn2c(CN3CCOCC3)cc(-c3cc(F)c(NC(=O)Nc4cc(C(F)(F)F)ccn4)c(F)c3)c12` [Example 14, N-{4-[4-amino-7-(morpholin-4-ylmethyl)pyrrolo[2,1-f][1,2,4]triazin-5-yl]-2,6-difluorophenyl}-N′-[4-(trifluoromethyl)pyridin-2-yl]urea], the IC50 is, setting by setting: under setting [1], above 100 nM; under setting [2], below 1000 nM.
On to `Nc1ncnn2c(CCCN3CCOCC3)cc(-c3ccc(NC(=O)Nc4cc(C(F)(F)F)ccn4)c(F)c3)c12` [Example 191, N-{4-[4-amino-7-(3-morpholin-4-ylpropyl)pyrrolo[2,1-f][1,2,4]triazin-5-yl]-2-fluorophenyl}-N′-[4-(trifluoromethyl)pyridin-2-yl]urea], for which the IC50 under setting [1] was below 10 nM.
As to `Nc1ncnn2c(CN3CCNC(=O)C3)cc(-c3ccc(NC(=O)Nc4cc(C(F)(F)F)ccc4F)c(F)c3)c12` [Example 40, N-(4-{4-amino-7-[(3-oxopiperazin-1-yl)methyl]pyrrolo[2,1-f][1,2,4]triazin-5-yl}-2-fluorophenyl)-N′-[2-fluoro-5-(trifluoromethyl)phenyl]urea], the IC50 under setting [1] was below 10 nM.
Under setting [1], `CC(C)(C)c1ccnc(NC(=O)Nc2ccc(-c3cc(CN4CCOCC4)n4ncnc(N)c34)cc2)c1` [Example 53, N-{4-[4-amino-7-(morpholin-4-ylmethyl)pyrrolo[2,1-f][1,2,4]triazin-5-yl]phenyl}-N′-(4-tert-butylpyridin-2-yl)urea] returned an IC50 below 10 nM.
Molecule `Nc1ncnn2c(CCN3CCOCC3)cc(-c3cc(F)c(NC(=O)Nc4cc(C(F)(F)F)ccc4F)cc3F)c12` [Example 211, N-{4-[4-amino-7-(2-morpholin-4-ylethyl)pyrrolo[2,1-f][1,2,4]triazin-5-yl]-2,5-difluorophenyl}-N′-[2-fluoro-5-(trifluoromethyl)phenyl]urea] displayed an IC50 under setting [1] of 10 to 100 nM.
The molecule `CC(=O)N1CCN(Cc2cc(-c3ccc(NC(=O)Nc4cc(C(F)(F)F)ccc4F)c(F)c3)c3c(N)ncnn23)CC1` [Example 89, N-(4-{7-[(4-acetylpiperazin-1-yl)methyl]-4-aminopyrrolo[2,1-f][1,2,4]triazin-5-yl}-2-fluorophenyl)-N′-[2-fluoro-5-(trifluoromethyl)phenyl]urea] displayed an IC50 under setting [1] below 10 nM.
With `Nc1ncnn2c(CCN3CCCOCC3)cc(-c3ccc(NC(=O)Nc4cc(C(F)(F)F)ccc4F)c(F)c3)c12` [Example 226, N-(4-{4-amino-7-[2-(1,4-oxazepan-4-yl)ethyl]pyrrolo[2,1-f][1,2,4]triazin-5-yl}-2-fluorophenyl)-N′-[2-fluoro-5-(trifluoromethyl)phenyl]urea], the IC50 under setting [1] is below 10 nM.
Regarding `COc1cc(-c2cc(CN3CCOCC3)n3ncnc(N)c23)ccc1NC(=O)Nc1cc(C(F)(F)F)ccc1F` [Example 36, N-{4-[4-amino-7-(morpholin-4-ylmethyl)pyrrolo[2,1-f][1,2,4]triazin-5-yl]-2-methoxyphenyl}-N′-[2-fluoro-5-(trifluoromethyl)phenyl]urea], the IC50 under setting [1] was in the range of 10 to 100 nM.
For `Nc1ncnn2c(CN3CCOCC3)cc(-c3cc(F)c(NC(=O)Nc4cccc(C(F)(F)F)c4F)cc3F)c12` [Example 42, N-{4-[4-amino-7-(morpholin-4-ylmethyl)pyrrolo[2,1-f][1,2,4]triazin-5-yl]-2,5-difluorophenyl}-N′-[2-fluoro-3-(trifluoromethyl)phenyl]urea], under setting [1], the IC50 lay within 10 to 100 nM.
The molecule `Nc1ncnn2c(CCN3CCOCC3)cc(-c3ccc(NC(=O)Nc4cc(C(F)(F)F)ccn4)c(F)c3)c12` [Example 250, 1-{4-[4-amino-7-(2-morpholin-4-ylethyl)pyrrolo[2,1-f][1,2,4]triazin-5-yl]-2-fluorophenyl}-3-[4-(trifluoromethyl)pyridin-2-yl]urea] showed a 50% inhibitory concentration (IC50) under setting [1] of 10 to 100 nM.
Consider `Nc1ncnn2c(CN3CCOCC3)cc(-c3cc(F)c(NC(=O)Nc4cc(C(F)(F)F)ccc4F)c(F)c3)c12` [Example 7, N-{4-[4-amino-7-(morpholin-4-ylmethyl)-pyrrolo[2,1-f][1,2,4]triazin-5-yl]-2,6-difluorophenyl}-N′-[Z-fluoro-5-(trifluoro-methyl)phenyl]urea], for which the IC50 is above 100 nM under setting [1] and below 1000 nM under setting [2].
Molecule `CN(C)C(=O)N1CCC(c2cc(-c3ccc(NC(=O)Nc4cc(C(F)(F)F)ccc4F)c(F)c3)c3c(N)ncnn23)C1` (centres unmarked) [Example 203, 3-{4-amino-5-[3-fluoro-4-({[2-fluoro-5-(trifluoromethyl)phenyl]carbamoyl}amino)phenyl]pyrrolo[2,1-f][1,2,4]triazin-7-yl}-N,N-dimethylpyrrolidine-1-carboxamide] came in with a concentration for half-maximal inhibition (IC50) under setting [1] below 10 nM.
Under setting [1], `COC[C@@H]1CCCN1CCc1cc(-c2ccc(NC(=O)Nc3cc(C(F)(F)F)ccc3F)c(F)c2)c2c(N)ncnn12` [Example 215, N-[4-(4-amino-7-{2-[2-(methoxymethyl)pyrrolidin-1-yl]ethyl}pyrrolo-[2,1-f][1,2,4]triazin-5-yl)-2-fluorophenyl]-N′-[2-fluoro-5-(trifluoromethyl)phenyl]urea] gave an IC50 of 10 to 100 nM.
Consider `Cc1cc(-c2cc(CCCN3CCOCC3)n3ncnc(N)c23)ccc1NC(=O)Nc1cc(C(F)(F)F)ccc1F` [Example 221, N-{4-[4-amino-7-(3-morpholin-4-ylpropyl)pyrrolo[2,1-f][1,2,4]triazin-5-yl]-2-methylphenyl}-N′-[2-fluoro-5-(trifluoromethyl)phenyl]urea], for which the IC50 under setting [1] was below 10 nM.
Same read-out and setting: the same measure for `Nc1ncnn2c(CN3CCOCC3)cc(-c3ccc(NC(=O)Nc4cc(C(F)(F)F)cc[n+]4[O-])c(F)c3)c12` [Example 287, N-{4-[4-amino-7-(morpholin-4-ylmethyl)pyrrolo[2,1-f][1,2,4]triazin-5-yl]-2-fluorophenyl}-N′-[1-oxido-4-(trifluoromethyl)pyridin-2-yl]urea]: below 10 nM; for `Cc1cc(-c2cc(CN3CCOCC3)n3ncnc(N)c23)ccc1NC(=O)Nc1cc(C(F)(F)F)ccn1` [Example 26, N-{4-[4-amino-7-(morpholin-4-ylmethyl)pyrrolo[2,1-f][1,2,4]triazin-5-yl]-2-methylphenyl}-N′-[4-(trifluoromethyl)pyridin-2-yl]urea]: below 10 nM.
In turn, `Nc1ncnn2c(CCCN3CCCOCC3)cc(-c3ccc(NC(=O)Nc4cc(C(F)(F)F)ccc4F)c(F)c3)c12` [Example 193, N-(4-{4-amino-7-[3-(1,4-oxazepan-4-yl)propyl]pyrrolo[2,1-f][1,2,4]triazin-5-yl}-2-fluorophenyl)-N′-[2-fluoro-5-(trifluoromethyl)phenyl]urea] registered an IC50 under setting [1] below 10 nM.
As to `COc1cc(-c2cc(CN3CCOCC3)n3ncnc(N)c23)ccc1NC(=O)Nc1cc(C(F)(F)F)ccc1Cl` [Example 35, N-{4-[4-amino-7-(morpholin-4-ylmethyl)pyrrolo[2,1-f][1,2,4]triazin-5-yl]-2-methoxyphenyl}-N′-[2-chloro-5-(trifluoromethyl)phenyl]urea], under setting [1], the IC50 is 10 to 100 nM.
The molecule `Nc1ncnn2c(CN3CCOCC3)cc(-c3ccc(NC(=O)Nc4cccc(Br)c4)c(F)c3)c12` [Example 67, N-4-[4-amino-7-(morpholin-4-ylmethyl)pyrrolo[2,1-f][1,2,4]triazin-5-yl]-2-fluorophenyl-N′-(3-bromophenyl)urea] came in with an IC50 under setting [1] below 10 nM.
Under setting [1], `Cc1cc(-c2cc(CN3CCNC(=O)C3)n3ncnc(N)c23)ccc1NC(=O)Nc1cc(C(F)(F)F)ccc1F` [Example 165, N-(4-{4-amino-7-[(3-oxopiperazin-1-yl)methyl]-pyrrolo[2,1-f][1,2,4]triazin-5-yl}-2-methylphenyl)-N′-[2-fluoro-5-(trifluoromethyl)-phenyl]urea] had an IC50 below 10 nM.
The molecule `Nc1ncnn2c(CN3CCNCC3)cc(-c3ccc(NC(=O)Nc4cc(C(F)(F)F)ccc4F)cc3)c12` [Example 81, N-4-[4-amino-7-(piperazin-1-ylmethyl)pyrrolo[2,1-f][1,2,4]triazin-5-yl]phenyl-N′-[2-fluoro-5-(trifluoromethyl)phenyl]urea] yielded a half-inhibitory concentration (IC50) under setting [1] below 10 nM.
Under setting [1], `CC(=O)c1cc(-c2ccc(NC(=O)Nc3cc(C(F)(F)F)ccc3F)c(F)c2)c2c(N)ncnn12` [Example 253, N-[4-(7-acetyl-4-aminopyrrolo[2,1-f][1,2,4]triazin-5-yl)-2-fluorophenyl]-N′-[2-fluoro-5-(trifluoromethyl)phenyl]urea] came in with an IC50 below 10 nM.
Same read-out and setting: the same measure for `Nc1ncnn2c(CN3CCCOCC3)cc(-c3ccc(NC(=O)Nc4cc(C(F)(F)F)ccc4F)c(F)c3)c12` [Example 177, N-{4-[4-amino-7-(1,4-oxazepan-4-ylmethyl)pyrrolo[2,1-f][1,2,4]triazin-5-yl]-2-fluorophenyl}-N′-[2-fluoro-5-(trifluoromethyl)phenyl]urea]: below 10 nM; for `Nc1ncnn2c(CN3CCOCC3)cc(-c3ccc(NC(=O)Nc4cc(C(F)(F)F)ccn4)cc3F)c12` [Example 11, N-{4-[4-amino-7-(morpholin-4-ylmethyl)pyrrolo[2,1-f][1,2,4]triazin-5-yl]-3-fluorophenyl}-N′-[4-(trifluoromethyl)pyridin-2-yl]urea]: below 10 nM.

Source of the values: patent US8143393B2, “Substituted 4-amino-pyrrolotriazine derivatives useful for treating hyper-proliferative disorders and diseases associated with angiogenesis” (Bayer HealthCare LLC, priority 2005, dated 2012).
